Test results as given in patent publication US20110098358A1, “HUMAN BETA3 ADRENERGIC RECEPTOR LIGAND, AND FOOD OR PHARMACEUTICAL PRODUCT CONTAINING THE SAME” (RICOM CORPORATION, priority 2008, published 2011).
Structures can show the parent of a compound that is named as a salt.

Tests used:
[1] = system: visceral preadipocytes (VAC); assay: observation of cell morphology (VAC), fat accumulation and reaction to NE; assay type: cell-based, rat; settings: NE 1×10^−6 M, 6 hours on last day
Procedure: (§1) Using 4 types of rat primary preadipocytes (visceral fat, […], subcutaneous white fat and brown fat), the fat accumulation-suppressing effect and fat-releasing effect by the composition of the present invention were preliminarily studied in vitro. […] The test of the adrenergic β3 receptor binding activity was carried out by the above-mentioned method. The Preadipocyte Culture kit H-3 with 3 types of cells (primary, rat, Primary Cell Co., Ltd.: visceral preadipocytes (hereinafter referred to as VAC), Lot No. FIHA-FV; subcutaneous white preadipocytes (hereinafter referred to as […] preadipocytes (hereinafter referred to as EAC), FIHA-FE) and the Brown Adipocyte Culture kit F-8 (primary, rat, Primary Cell Co., Ltd.: Lot No. HDOA-1) were used. The 3 types of preadipocytes (visceral fat, […] subcutaneous white fat) were seeded into 12 wells in a 24-well plate at a cell number of 1.5×10^6 (1.2×10^5 cells/mL/well), followed by preculture for 4 days in the adipocyte differentiation medium. Thereafter (on day 4 after seeding), the negative control substance and the test substance were prepared to a predetermined concentration in a visceral fat differentiation medium, and the prepared medium was added to the cells. The medium was replaced on days 0, 2 and 4 after the addition of the test substance (days 4, 6 and 8 after seeding), while adding freshly prepared medium after the collection. […]

[2] = system: subcutaneous white preadipocytes (SAC); assay: observation of cell morphology (SAC), fat accumulation and reaction to NE; assay type: cell-based, rat; settings: NE 1×10^−6 M, 6 hours on last day
Procedure: as §1

[3] = system: periepididymal preadipocytes (EAC); assay: observation of cell morphology (EAC), fat accumulation and reaction to NE; assay type: cell-based, rat; settings: NE 1×10^−6 M, 6 hours on last day
Procedure: as §1

brown adipocytes (BAT) = assay: observation of cell morphology (BAT), fat accumulation and reaction to NE; assay type: cell-based, rat; settings: 1 hour on last day
Procedure: Using 4 types of rat primary preadipocytes (visceral fat, […], subcutaneous white fat and brown fat), the fat accumulation-suppressing effect and fat-releasing effect by the composition of the present invention were preliminarily studied in vitro. […] The test of the adrenergic β3 receptor binding activity was carried out by the above-mentioned method. The Preadipocyte Culture kit H-3 with 3 types of cells (primary, rat, Primary Cell Co., Ltd.: visceral preadipocytes (hereinafter referred to as VAC), Lot No. FIHA-FV; subcutaneous white preadipocytes (hereinafter referred to as […] preadipocytes (hereinafter referred to as EAC), FIHA-FE) and the Brown Adipocyte Culture kit F-8 (primary, rat, Primary Cell Co., Ltd.: Lot No. HDOA-1) were used. Cells seeded on a 24-well plate were cultured in a growth medium for 3 days, and the cells were confirmed to have become confluent. After replacing the medium with a differentiation induction medium, the culture was continued for 2 days, and the negative control substance and the test substance were prepared to a predetermined concentration with a maintenance medium, followed by addition of the prepared medium and 4 days of culture. The treatment with NE was carried out in the same manner as in VAC, using the maintenance medium. […]

[4] = molecular target: T1, human recombinant adrenergic β3 receptor (Homo sapiens, UniProt P13945); assay: adrenergic β3 receptor binding activity ([125I]cyanopindolol); settings: HEK-293 cells, 0.5 nM [125I]cyanopindolol, Tris buffer pH 7.4, 25° C., 90 minutes
T1 construct: expressed in transfected cells; host or cells: HEK-293 cells
T1 sequence (P13945 whole entry): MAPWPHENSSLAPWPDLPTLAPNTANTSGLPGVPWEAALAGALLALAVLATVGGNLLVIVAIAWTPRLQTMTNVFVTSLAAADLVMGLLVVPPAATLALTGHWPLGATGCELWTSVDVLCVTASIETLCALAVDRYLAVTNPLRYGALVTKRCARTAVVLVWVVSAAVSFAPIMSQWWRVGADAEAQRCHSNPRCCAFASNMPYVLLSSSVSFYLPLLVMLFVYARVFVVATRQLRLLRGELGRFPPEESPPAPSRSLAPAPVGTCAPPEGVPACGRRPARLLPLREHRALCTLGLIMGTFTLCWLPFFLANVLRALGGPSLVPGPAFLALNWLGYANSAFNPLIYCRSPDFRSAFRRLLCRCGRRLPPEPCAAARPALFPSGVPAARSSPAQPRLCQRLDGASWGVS
Procedure: The adrenergic β3 receptor binding activity can be measured according to, for example, the method described in Cell Biology: Feve et al, Proc. Natl. Acad. Sci. USA 91 (1994), Vol. 91, pp. 5677-5681, using HEK-293 cells which express a human recombinant adrenergic β3 receptor. That is, a solution of a sample in 1% DMSO, and 0.5 nM [^125I]cyanopindolol are added to Tris buffer (pH 7.4), and the HEK-293 cells are cultured therein at 25° C. for 90 minutes, followed by filtration and washing of the cells, and measurement of the radioactivity of the adrenergic β3 receptor binding ligand.
Each component containing the components shown in Table 1 below was dissolved in DMSO to 1 w/v %, and the resulting solution was added to an adipocyte differentiation medium (Primary Cell Co., Ltd., Lot No. 080411) to a final concentration of 10 μg/mL before use. The test of the adrenergic β3 receptor binding activity was carried out by the above-mentioned method.

Structure (SMILES) | reaction by treatment with NE (morphology) [1] | reaction by the addition of NE (morphology) [2] | reaction by the addition of NE (morphology) [3] | reaction by 1 hour of treatment with NE (morphology) (brown adipocytes (BAT)) | Binding activity (%) [4]
NC[C@H](O)c1ccc(O)c(O)c1 [NE, (−)-Norepinephrine(+)-bitartrate salt hydrate] | reaction by 6 hours of the treatment with NE was obtained | reaction by the addition of NE was obtained | reaction by the addition of NE was obtained | sufficiently confirmed | –
CC/C=C\C/C=C\C/C=C\CCCCCCCC(=O)O [compound 7, C18:3α] | – | – | – | – | 22%
